The structures appear in SMILES notation. Read-outs that look alike come from different tables or passages of the source. Bounds are passed on as bounds.

The text below walks through data of patent US11142525B2 (Pfizer Inc., priority 2018, dated 2021).

Test [1] has as its target human full-length recombinant HPK1 (Homo sapiens (Human), UniProt Q92918). The experiment in a line: HPK1 biochemical enzyme assay, microfluidic mobility shift assay (MSA). The conditions noted are these: read-out: HPK1 Enzyme Assay_Ki.
For test [2], the system named is phospho-SLP-76 (Ser376) in Jurkat cells. Description: Phospho-SLP-76 (Ser376) Homogeneous Time Resolved Fluorescence (HTRF) assay in Jurkat cells. In kind it is cell-based. The settings on record: Homo sapiens, read-out: SLP76 Assay_IC50. In a few lines:
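Phospho-SLP-76 in lysates was read by sandwich HTRF and IC50 derived by four-parameter nonlinear regression. Before lysis, cells had received compound for 30 min (11-point, 3-fold series from 10 μM, 0.1% DMSO), followed by anti-CD3 F(ab)2 complex (200 μg/mL, 15 min, 37 °C).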

The mark [3] stands for this setting: mobility shift assay, 75 μM ATP, Morrison equation, tight-binding competitive inhibition.
Setting [4] is: 30 min pre-treatment, anti-CD3 stimulation 15 min, HTRF.
Setting [5] is: Phospho-SLP-76 (Ser376) HTRF, anti-CD3 stimulation.

Sequence of human full-length recombinant HPK1 (Q92918 whole entry): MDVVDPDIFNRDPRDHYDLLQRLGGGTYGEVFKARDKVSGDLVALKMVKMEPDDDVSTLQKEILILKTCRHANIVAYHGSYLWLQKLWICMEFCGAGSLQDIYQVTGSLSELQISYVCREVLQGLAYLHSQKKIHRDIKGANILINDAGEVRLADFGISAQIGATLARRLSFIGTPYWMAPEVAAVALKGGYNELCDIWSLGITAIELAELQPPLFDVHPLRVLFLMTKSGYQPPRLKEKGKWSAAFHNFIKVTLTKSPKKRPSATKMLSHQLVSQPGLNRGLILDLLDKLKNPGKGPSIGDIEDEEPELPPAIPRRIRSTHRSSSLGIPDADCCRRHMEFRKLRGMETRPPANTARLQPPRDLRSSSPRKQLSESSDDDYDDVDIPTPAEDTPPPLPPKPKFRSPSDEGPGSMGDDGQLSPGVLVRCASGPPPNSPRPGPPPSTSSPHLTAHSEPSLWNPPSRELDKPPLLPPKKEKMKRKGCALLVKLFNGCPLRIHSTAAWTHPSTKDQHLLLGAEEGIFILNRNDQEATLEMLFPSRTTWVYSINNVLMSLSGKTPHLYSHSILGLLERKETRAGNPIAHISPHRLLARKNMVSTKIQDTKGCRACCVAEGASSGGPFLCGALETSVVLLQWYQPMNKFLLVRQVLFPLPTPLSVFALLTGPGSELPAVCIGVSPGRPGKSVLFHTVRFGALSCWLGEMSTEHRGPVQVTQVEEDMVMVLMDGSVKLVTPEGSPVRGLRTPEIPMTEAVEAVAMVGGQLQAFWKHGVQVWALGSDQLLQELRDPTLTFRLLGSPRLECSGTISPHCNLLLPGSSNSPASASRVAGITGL

Consider `CNCc1nc(C2(C)CC2)cc2c1CN(c1cccc(-c3nncn3C3CCC3)n1)C2=O` [Example 65, 2-[6-(4-cyclobutyl-4H-1,2,4-triazol-3-yl)pyridin-2-yl]-4-[(methylamino)methyl]-6-(1-methylcyclopropyl)-2,3-dihydro-1H-pyrrolo[3,4-c]pyridin-1-one], for which the Ki in test [1] (setting [3]) is 0.35 nM. Besides, the IC50 in test [2] (setting [4]) worked out at 114 nM.

With `CC[C@@H](CC(F)(F)F)n1cnnc1-c1cccc(N2Cc3c(cc(N(C)C)nc3CNC)C2=O)n1` (single isomer, unassigned) [Example 18, 6-(dimethylamino)-4-[(methylamino)methyl]-2-(6-{4-[(3ξ)-1,1,1-trifluoropentan-3-yl]-4H-1,2,4-triazol-3-yl}pyridin-2-yl)-2,3-dihydro-1H-pyrrolo[3,4-c]pyridin-1-one], the Ki in test [1] (setting [3]) is less than 0.05 nM. Further, in test [2] (setting [4]), the IC50 came to 101 nM.

Consider `CNCc1nc(N(C)C)cc2c1CN(c1cccc(-c3nncn3[C@@H](C)CC(F)(F)F)n1)C2=O` [Example 17, 6-(dimethylamino)-4-[(methylamino)methyl]-2-(6-{4-[(2S)-4,4,4-trifluorobutan-2-yl]-4H-1,2,4-triazol-3-yl}pyridin-2-yl)-2,3-dihydro-1H-pyrrolo[3,4-c]pyridin-1-one], for which the Ki in test [1] (setting [3]) is less than 0.05 nM. Moreover, the IC50 in test [2] (setting [4]) came out at 70 nM.

For the molecule `CCN(CC)c1cc2c(c(CNC)n1)CN(c1cccc(-c3cnc(C)n3CC)n1)C2=O` [Example 96, 6-(diethylamino)-2-[6-(1-ethyl-2-methyl-1H-imidazol-5-yl)pyridin-2-yl]-4-[(methylamino)methyl]-2,3-dihydro-1H-pyrrolo[3,4-c]pyridin-1-one], in test [1] (HPK1 mobility shift assay), the Ki amounted to 0.4 nM. Also, the IC50 in test [2] (setting [5]) is 142 nM.

For `CCC(CC)n1c(C)nnc1-c1cccc(N2Cc3c(cc(N4CCC[C@@H]4C)nc3CNC)C2=O)n1` [Example 135, 4-[(methylamino)methyl]-2-{6-[5-methyl-4-(pentan-3-yl)-4H-1,2,4-triazol-3-yl]pyridin-2-yl}-6-[(2S)-2-methylpyrrolidin-1-yl]-2,3-dihydro-1H-pyrrolo[3,4-c]pyridin-1-one], the Ki in test [1] (HPK1 mobility shift assay) turned out to be 0.8 nM. In addition, in test [2] (setting [5]), the IC50 was more than 10000 nM.

Take `CCC(CC)n1cnnc1-c1cccc(N2Cc3c(cc(C4(C)CC4)nc3CN)C2=O)n1` [Example 126, 4-(aminomethyl)-6-(1-methylcyclopropyl)-2-{6-[4-(pentan-3-yl)-4H-1,2,4-triazol-3-yl]pyridin-2-yl}-2,3-dihydro-1H-pyrrolo[3,4-c]pyridin-1-one]: in test [1] (HPK1 mobility shift assay), the Ki amounted to 0.8 nM. The IC50 in test [2] (setting [5]) came to 114 nM.

`NCc1nc(C2CC2)cc2c1CN(c1cccc(N3C(=O)OC[C@@H]3CF)n1)C2=O` [Example 86, 4-(aminomethyl)-6-cyclopropyl-2-{6-[(4R)-4-(fluoromethyl)-2-oxo-1,3-oxazolidin-3-yl]pyridin-2-yl}-2,3-dihydro-1H-pyrrolo[3,4-c]pyridin-1-one]: in test [1] (HPK1 mobility shift assay), the Ki was 3.04 nM. Besides, in test [2] (setting [5]), the IC50 came out at 652 nM.

As to `CCC(CC)n1cnnc1-c1cccc(N2Cc3c(cc(C4(C)CC4)nc3CNC)C2=O)n1` [Example 57, 4-[(methylamino)methyl]-6-(1-methylcyclopropyl)-2-{6-[4-(pentan-3-yl)-4H-1,2,4-triazol-3-yl]pyridin-2-yl}-2,3-dihydro-1H-pyrrolo[3,4-c]pyridin-1-one], the Ki in test [1] (setting [3]) turned out to be 0.21 nM. Besides, the IC50 in test [2] (setting [4]) worked out at 74 nM.

Turning to `CCN(CC)c1cc2c(c(CN)n1)CN(c1cccc(-c3nnc(C)n3CC)n1)C2=O` [Example 163], in test [1] (HPK1 mobility shift assay), the Ki came to 0.88 nM. The IC50 in test [2] (setting [5]) came to 196 nM.

Turning to `CCCn1c(C)nnc1-c1cccc(N2Cc3c(cc(N(CC)CC)nc3CN)C2=O)n1` [Example 170], the Ki in test [1] (HPK1 mobility shift assay) was 0.36 nM. In addition, the IC50 in test [2] (setting [5]) was determined as 264 nM.

Turning to `CCCn1cnnc1-c1cccc(N2Cc3c(cc(C4CCC4)nc3CNC)C2=O)n1` [Example 103, 6-cyclobutyl-4-[(methylamino)methyl]-2-[6-(4-propyl-4H-1,2,4-triazol-3-yl)pyridin-2-yl]-2,3-dihydro-1H-pyrrolo[3,4-c]pyridin-1-one], the Ki in test [1] (HPK1 mobility shift assay) was 1.15 nM. In addition, the IC50 in test [2] (setting [5]) was determined as 199 nM.

As to `CCNc1cc2c(c(CNC)n1)CN(c1cccc(-c3nncn3CC)n1)C2=O` [Example 76, 6-(ethylamino)-2-[6-(4-ethyl-4H-1,2,4-triazol-3-yl)pyridin-2-yl]-4-[(methylamino)methyl]-2,3-dihydro-1H-pyrrolo[3,4-c]pyridin-1-one], in test [1] (HPK1 mobility shift assay), the Ki amounted to 0.64 nM. The IC50 in test [2] (setting [5]) worked out at 583 nM.

Take `CCCn1cnnc1-c1cccc(N2Cc3c(cc(N(C)C(C)C)nc3CN)C2=O)n1` [Example 82, 4-(aminomethyl)-6-[methyl(propan-2-yl)amino]-2-[6-(4-propyl-4H-1,2,4-triazol-3-yl)pyridin-2-yl]-2,3-dihydro-1H-pyrrolo[3,4-c]pyridin-1-one]: the Ki in test [1] (HPK1 mobility shift assay) is 0.12 nM. In addition, the IC50 in test [2] (setting [5]) is 95 nM.

For the molecule `CCC(CC)n1cnnc1-c1cccc(N2Cc3c(cc(N(CC)CC)nc3CN)C2=O)n1` [Example 122, 4-(aminomethyl)-6-(diethylamino)-2-{6-[4-(pentan-3-yl)-4H-1,2,4-triazol-3-yl]pyridin-2-yl}-2,3-dihydro-1H-pyrrolo[3,4-c]pyridin-1-one], in test [1] (HPK1 mobility shift assay), the Ki is 0.41 nM. For the same molecule, the IC50 in test [2] (setting [5]) came out at 70 nM.

In the case of `CCC(CC)n1cnnc1-c1cccc(N2Cc3c(cc(N(C)C)nc3CN)C2=O)n1` [Example 117, 4-(aminomethyl)-6-(dimethylamino)-2-{6-[4-(pentan-3-yl)-4H-1,2,4-triazol-3-yl]pyridin-2-yl}-2,3-dihydro-1H-pyrrolo[3,4-c]pyridin-1-one], in test [1] (HPK1 mobility shift assay), the Ki turned out to be 0.46 nM. Further, the IC50 in test [2] (setting [5]) was found to be 89 nM.

`CNCc1nc(N(C)C)cc2c1CN(c1cccc(N3C(=O)OC[C@@H]3CF)n1)C2=O` [Example 45, 6-(dimethylamino)-2-{6-[(4R)-4-(fluoromethyl)-2-oxo-1,3-oxazolidin-3-yl]pyridin-2-yl}-4-[(methylamino)methyl]-2,3-dihydro-1H-pyrrolo[3,4-c]pyridin-1-one]: the Ki in test [1] (setting [3]) worked out at 0.17 nM. Also, the IC50 in test [2] (setting [4]) came out at 173 nM.

As for `CCc1nnc(-c2cccc(N3Cc4c(cc(N5CCC[C@H]5C)nc4CNC)C3=O)n2)n1CC` [Example 66, 2-[6-(4,5-diethyl-4H-1,2,4-triazol-3-yl)pyridin-2-yl]-4-[(methylamino)methyl]-6-[(2R)-2-methylpyrrolidin-1-yl]-2,3-dihydro-1H-pyrrolo[3,4-c]pyridin-1-one], in test [1] (setting [3]), the Ki amounted to 0.52 nM. In test [2] (setting [4]), the IC50 worked out at 108 nM.

For `C[C@H]1CCCN1c1cc2c(c(CN)n1)CN(c1cccc(N3C(=O)OC[C@@H]3C)n1)C2=O` [Example 132, 4-(aminomethyl)-2-{6-[(4S)-4-methyl-2-oxo-1,3-oxazolidin-3-yl]pyridin-2-yl}-6-[(2S)-2-methylpyrrolidin-1-yl]-2,3-dihydro-1H-pyrrolo[3,4-c]pyridin-1-one], in test [1] (HPK1 mobility shift assay), the Ki was found to be 0.2 nM. Further, in test [2] (setting [5]), the IC50 was 67 nM.

Turning to `CCN(CC)c1cc2c(c(CN(C)C)n1)CN(c1cccc(-c3nncn3CC)n1)C2=O` [Example 88, 6-(diethylamino)-4-[(dimethylamino)methyl]-2-[6-(4-ethyl-4H-1,2,4-triazol-3-yl)pyridin-2-yl]-2,3-dihydro-1H-pyrrolo[3,4-c]pyridin-1-one], in test [1] (HPK1 mobility shift assay), the Ki turned out to be 2.52 nM. For the same molecule, in test [2] (setting [5]), the IC50 was found to be 2680 nM.

Turning to `CC(C)n1cnnc1-c1cccc(N2Cc3c(cc(N4[C@H](C)C[C@@H]4C)nc3CN)C2=O)n1` [Example 34, 4-(aminomethyl)-6-[(2R,4S)-2,4-dimethylazetidin-1-yl]-2-{6-[4-(propan-2-yl)-4H-1,2,4-triazol-3-yl]pyridin-2-yl}-2,3-dihydro-1H-pyrrolo[3,4-c]pyridin-1-one], the Ki in test [1] (setting [3]) turned out to be 1.32 nM. Moreover, the IC50 in test [2] (setting [4]) is 379 nM.

Consider `CCN(CC)c1cc2c(c(CN)n1)CN(c1cccc(-c3nncn3CC)n1)C2=O` [Example 75, 4-(aminomethyl)-6-(diethylamino)-2-[6-(4-ethyl-4H-1,2,4-triazol-3-yl)pyridin-2-yl]-2,3-dihydro-1H-pyrrolo[3,4-c]pyridin-1-one], for which the Ki in test [1] (HPK1 mobility shift assay) was 0.52 nM. Moreover, the IC50 in test [2] (setting [5]) came to 118 nM.

Turning to `CCn1cnnc1-c1cccc(N2Cc3c(cc(C4(C)CC4)nc3CNC)C2=O)n1` [Example 95, 2-[6-(4-ethyl-4H-1,2,4-triazol-3-yl)pyridin-2-yl]-4-[(methylamino)methyl]-6-(1-methylcyclopropyl)-2,3-dihydro-1H-pyrrolo[3,4-c]pyridin-1-one], the Ki in test [1] (HPK1 mobility shift assay) was 0.51 nM. Moreover, the IC50 in test [2] (setting [5]) was 168 nM.

On to `CC[C@H](C)n1cnnc1-c1cccc(N2Cc3c(cc(N(C)CC)nc3CNC)C2=O)n1` [Example 173], for which, in test [1] (HPK1 mobility shift assay), the Ki was found to be 0.06 nM. In addition, in test [2] (setting [5]), the IC50 came to 43 nM.

For the molecule `Cc1nnc(-c2cccc(N3Cc4c(cc(N5CCC[C@H]5C)nc4CN)C3=O)n2)n1C(C)C` [Example 156], in test [1] (HPK1 mobility shift assay), the Ki amounted to 0.19 nM. Also, the IC50 in test [2] (setting [5]) came to 104 nM.

As for `CC(C)c1cnnn1-c1cccc(N2Cc3c(cc(N(C)C)nc3CN)C2=O)n1` [Example 35, 4-(aminomethyl)-6-(dimethylamino)-2-{6-[5-(propan-2-yl)-1H-1,2,3-triazol-1-yl]pyridin-2-yl}-2,3-dihydro-1H-pyrrolo[3,4-c]pyridin-1-one], the Ki in test [1] (setting [3]) was found to be 0.12 nM. In addition, the IC50 in test [2] (setting [4]) was 183 nM.

`CCC(CC)n1cnnc1-c1cccc(N2Cc3c(cc(N4CCC[C@@H]4C)nc3CN)C2=O)n1` [Example 152]: the Ki in test [1] (HPK1 mobility shift assay) is 0.12 nM. The IC50 in test [2] (setting [5]) was 46 nM.

In the case of `CNCc1nc(N(C)C)cc2c1CN(c1cccc(-c3nncn3C(C)C)n1)C2=O` [Example 1, 6-(dimethylamino)-4-[(methylamino)methyl]-2-{6-[4-(propan-2-yl)-4H-1,2,4-triazol-3-yl]pyridin-2-yl}-2,3-dihydro-1H-pyrrolo[3,4-c]pyridin-1-one], the Ki in test [1] (setting [3]) amounted to 0.15 nM. Further, the IC50 in test [2] (setting [4]) was 112 nM.
